# Measurements taken from patent US6737383B1, “Herbicidal oxadiazolidines” (priority 1999, dated 2004).
# Tests used:
# bedstraw = experiment: Test B pre/postemergence bedstraw; format: in vivo, Galium aparine
# Summary of the method: (§1)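 Test chemicals in a non-phytotoxic solvent mixture with surfactant were sprayed preemergence onto planted seeds and postemergence onto plants 2 to 18 cm tall (1- to 4-leaf stage). After twelve to sixteen days in a greenhouse, injury was visually rated against untreated controls from 0 (no effect) to 10 (complete control).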
# blackgrass = experiment: Test B pre/postemergence blackgrass; format: in vivo, Alopecurus myosuroides
# Summary of the method: as §1
# surinam grass = experiment: Test B pre/postemergence surinam grass; format: in vivo, Brachiaria decumbens
# Summary of the method: as §1
# cocklebur = experiment: Test B pre/postemergence cocklebur; format: in vivo, Xanthium strumarium
# Summary of the method: as §1
# corn = experiment: Test B pre/postemergence corn; format: in vivo, Zea mays
# Summary of the method: as §1
# crabgrass = experiment: Test B pre/postemergence crabgrass; format: in vivo, Digitaria sanguinalis
# Summary of the method: as §1
# giant foxtail = experiment: Test B pre/postemergence giant foxtail; format: in vivo, Setaria faberii
# Summary of the method: as §1
# morningglory = experiment: Test B pre/postemergence morningglory; format: in vivo, Ipomoea hederacea
# Summary of the method: as §1
# pigweed = experiment: Test B pre/postemergence pigweed; format: in vivo, Amaranthus retroflexus
# Summary of the method: as §1
# rape = experiment: Test B pre/postemergence rape; format: in vivo, Brassica napus
# Summary of the method: as §1
# soybean = experiment: Test B pre/postemergence soybean; format: in vivo, Glycine max
# Summary of the method: as §1
# sugar beet = experiment: Test B pre/postemergence sugar beet; format: in vivo, Beta vulgaris
# Summary of the method: as §1
# velvetleaf = experiment: Test B pre/postemergence velvetleaf; format: in vivo, Abutilon theophrasti
# Summary of the method: as §1
# wheat = experiment: Test B pre/postemergence wheat; format: in vivo, Triticum aestivum
# Summary of the method: as §1
# wild oat = experiment: Test B pre/postemergence wild oat; format: in vivo, Avena fatua
# Summary of the method: as §1
# purple nutsedge = experiment: Test B pre/postemergence purple nutsedge; format: in vivo, Cyperus rotundus
# Summary of the method: as §1
# [1] = Postemergence, Rate 500 g/ha, scale 0 to 10, 0 is no effect, 10 is complete control
# [2] = Preemergence, Rate 62 g/ha, scale of 0 to 10 where 0 is no effect and 10 is complete control
# [3] = Preemergence, Rate 125 g/ha, scale 0 to 10, 0 is no effect, 10 is complete control
# [4] = Preemergence, Rate 250 g/ha, scale 0 to 10, 0 is no effect, 10 is complete control
# [5] = Preemergence, Rate 500 g/ha, scale 0 to 10, 0 is no effect, 10 is complete control
# [6] = Postemergence, Rate 62 g/ha, scale of 0 to 10, 0 is no effect, 10 is complete control
# [7] = Postemergence, Rate 125 g/ha, scale 0 to 10, 0 is no effect, 10 is complete control
# [8] = Postemergence, Rate 250 g/ha, scale 0 to 10
# [9] = Preemergence, Rate 500 g/ha, scale of 0 to 10 where 0 is no effect and 10 is complete control
# [10] = Postemergence, Rate 250 g/ha, scale 0 to 10, 0 no effect, 10 complete control
smiles,measurement,setting,value
CC(=O)OCCCCn1c(=O)on(C(=O)N(c2ccc(F)cc2F)C(C)C)c1=O [Compound 506],"Plant response rating, Bedstraw",bedstraw; [1],9
same,"Plant response rating, Bedstraw",bedstraw; [2],0
same,Bedstraw plant response rating,bedstraw; [3],0
same,Bedstraw plant response rating,bedstraw; [4],0
same,Bedstraw plant response rating,bedstraw; [5],4
same,Blackgrass plant response rating,blackgrass; [6],0
same,Blackgrass plant response rating,blackgrass; [7],0
same,Blackgrass plant response rating,blackgrass; [8],5
same,"Plant response rating, Blackgrass",blackgrass; [1],6
same,"Plant response rating, Blackgrass",blackgrass; [2],0
same,Blackgrass plant response rating,blackgrass; [3],0
same,Blackgrass plant response rating,blackgrass; [4],4
same,Blackgrass plant response rating,blackgrass; [9],9
same,B. signalgrass plant response rating,surinam grass; [6],0
same,B. signalgrass plant response rating,surinam grass; [7],0
same,B. signalgrass plant response rating,surinam grass; [10],0
same,"Plant response rating, B. signalgrass",surinam grass; [1],0
same,"Plant response rating, B. signalgrass",surinam grass; [2],0
same,B. signalgrass plant response rating,surinam grass; [3],0
same,B. signalgrass plant response rating,surinam grass; [4],0
same,B. signalgrass plant response rating,surinam grass; [5],0
same,Cocklebur plant response rating,cocklebur; [6],0
same,Cocklebur plant response rating,cocklebur; [7],0
same,Cocklebur plant response rating,cocklebur; [8],2
same,"Plant response rating, Cocklebur",cocklebur; [1],6
same,"Plant response rating, Cocklebur",cocklebur; [2],0
same,Cocklebur plant response rating,cocklebur; [3],0
same,Cocklebur plant response rating,cocklebur; [4],0
same,Cocklebur plant response rating,cocklebur; [9],0
same,Corn plant response rating,corn; [6],0
same,Corn plant response rating,corn; [7],0
same,Corn plant response rating,corn; [8],0
same,"Plant response rating, Corn",corn; [1],0
same,"Plant response rating, Corn",corn; [2],0
same,Corn plant response rating,corn; [3],0
same,Corn plant response rating,corn; [9],0
same,Crabgrass plant response rating,crabgrass; [6],0
same,Crabgrass plant response rating,crabgrass; [7],3
same,Crabgrass plant response rating,crabgrass; [8],7
same,"Plant response rating, Crabgrass",crabgrass; [1],8
same,"Plant response rating, Crabgrass",crabgrass; [2],0
same,Crabgrass plant response rating,crabgrass; [3],0
same,Crabgrass plant response rating,crabgrass; [9],6
same,Giant foxtail plant response rating,giant foxtail; [6],2
same,"Plant response rating, Giant foxtail",giant foxtail; [1],8
same,"Plant response rating, Giant foxtail",giant foxtail; [2],0
same,Giant foxtail plant response rating,giant foxtail; [3],5
same,Giant foxtail plant response rating,giant foxtail; [9],8
same,Morningglory plant response rating,morningglory; [6],0
same,Morningglory plant response rating,morningglory; [7],0
same,"Plant response rating, Morningglory",morningglory; [1],5
same,"Plant response rating, Morningglory",morningglory; [2],0
same,Morningglory plant response rating,morningglory; [3],0
same,Morningglory plant response rating,morningglory; [9],0
same,Redroot pigweed plant response rating,pigweed; [6],0
same,Redroot pigweed plant response rating,pigweed; [7],0
same,"Plant response rating, Redroot pigweed",pigweed; [1],0
same,"Plant response rating, Redroot pigweed",pigweed; [2],2
same,Redroot pigweed plant response rating,pigweed; [3],8
same,Redroot pigweed plant response rating,pigweed; [9],10
same,Rape plant response rating,rape; [6],0
same,Rape plant response rating,rape; [7],0
same,"Plant response rating, Rape",rape; [1],7
same,"Plant response rating, Rape",rape; [2],0
same,Rape plant response rating,rape; [3],0
same,Rape plant response rating,rape; [9],8
same,Soybean plant response rating,soybean; [6],2
same,Soybean plant response rating,soybean; [7],2
same,"Plant response rating, Soybean",soybean; [1],4
same,"Plant response rating, Soybean",soybean; [2],0
same,Soybean plant response rating,soybean; [3],0
same,Soybean plant response rating,soybean; [9],0
same,Sugarbeets plant response rating,sugar beet; [6],2
same,Sugarbeets plant response rating,sugar beet; [7],6
same,"Plant response rating, Sugarbeets",sugar beet; [1],7
same,"Plant response rating, Sugarbeets",sugar beet; [2],0
same,Sugarbeets plant response rating,sugar beet; [3],0
same,Sugarbeets plant response rating,sugar beet; [9],0
same,Velvetleaf plant response rating,velvetleaf; [6],0
same,Velvetleaf plant response rating,velvetleaf; [7],0
same,"Plant response rating, Velvetleaf",velvetleaf; [1],4
same,"Plant response rating, Velvetleaf",velvetleaf; [2],0
same,Velvetleaf plant response rating,velvetleaf; [3],0
same,Velvetleaf plant response rating,velvetleaf; [9],0
same,Wheat plant response rating,wheat; [6],0
same,Wheat plant response rating,wheat; [7],0
same,"Plant response rating, Wheat",wheat; [1],4
same,"Plant response rating, Wheat",wheat; [2],0
same,Wheat plant response rating,wheat; [3],0
same,Wheat plant response rating,wheat; [9],2
same,Wild oats plant response rating,wild oat; [6],0
same,Wild oats plant response rating,wild oat; [7],0
same,"Plant response rating, Wild oats",wild oat; [1],2
same,"Plant response rating, Wild oats",wild oat; [2],0
same,Wild oats plant response rating,wild oat; [3],2
same,Wild oats plant response rating,wild oat; [9],7
same,Nutsedge plant response rating,purple nutsedge; [6],0
same,Nutsedge plant response rating,purple nutsedge; [7],0
same,"Plant response rating, Nutsedge",purple nutsedge; [1],0
same,"Plant response rating, Nutsedge",purple nutsedge; [2],0
same,Nutsedge plant response rating,purple nutsedge; [3],0
same,Nutsedge plant response rating,purple nutsedge; [9],10
CCN(CC)C(=O)Cn1c(=O)on(C(=O)N(c2ccc(F)cc2F)C(C)C)c1=O [Compound 512],Bedstraw plant response rating,bedstraw; [8],7
same,"Plant response rating, Bedstraw",bedstraw; [2],0
same,Bedstraw plant response rating,bedstraw; [3],0
same,Bedstraw plant response rating,bedstraw; [4],0
same,Bedstraw plant response rating,bedstraw; [5],3
same,Blackgrass plant response rating,blackgrass; [6],2
same,Blackgrass plant response rating,blackgrass; [7],3
same,Blackgrass plant response rating,blackgrass; [8],6
same,"Plant response rating, Blackgrass",blackgrass; [1],6
same,"Plant response rating, Blackgrass",blackgrass; [2],0
same,Blackgrass plant response rating,blackgrass; [3],2
same,Blackgrass plant response rating,blackgrass; [4],9
same,Blackgrass plant response rating,blackgrass; [9],10
same,B. signalgrass plant response rating,surinam grass; [6],0
same,B. signalgrass plant response rating,surinam grass; [7],1
same,B. signalgrass plant response rating,surinam grass; [10],4
same,"Plant response rating, B. signalgrass",surinam grass; [1],5
same,"Plant response rating, B. signalgrass",surinam grass; [2],3
same,B. signalgrass plant response rating,surinam grass; [3],8
same,B. signalgrass plant response rating,surinam grass; [4],10
same,B. signalgrass plant response rating,surinam grass; [5],10
same,Cocklebur plant response rating,cocklebur; [6],0
same,Cocklebur plant response rating,cocklebur; [7],2
same,Cocklebur plant response rating,cocklebur; [8],3
same,"Plant response rating, Cocklebur",cocklebur; [1],7
same,"Plant response rating, Cocklebur",cocklebur; [2],0
same,Cocklebur plant response rating,cocklebur; [3],0
same,Cocklebur plant response rating,cocklebur; [4],0
same,Cocklebur plant response rating,cocklebur; [9],0
same,Corn plant response rating,corn; [6],0
same,Corn plant response rating,corn; [7],0
same,Corn plant response rating,corn; [8],0
same,"Plant response rating, Corn",corn; [1],0
same,"Plant response rating, Corn",corn; [2],0
same,Corn plant response rating,corn; [3],0
same,Corn plant response rating,corn; [9],3
same,Crabgrass plant response rating,crabgrass; [6],2
same,Crabgrass plant response rating,crabgrass; [7],2
same,Crabgrass plant response rating,crabgrass; [8],5
same,"Plant response rating, Crabgrass",crabgrass; [1],9
same,"Plant response rating, Crabgrass",crabgrass; [2],3
same,Crabgrass plant response rating,crabgrass; [3],7
same,Crabgrass plant response rating,crabgrass; [9],9
same,Giant foxtail plant response rating,giant foxtail; [6],2
same,Giant foxtail plant response rating,giant foxtail; [7],3
same,"Plant response rating, Giant foxtail",giant foxtail; [1],8
same,"Plant response rating, Giant foxtail",giant foxtail; [2],5
same,Giant foxtail plant response rating,giant foxtail; [3],9
same,Giant foxtail plant response rating,giant foxtail; [9],10
same,Morningglory plant response rating,morningglory; [6],5
same,Morningglory plant response rating,morningglory; [7],5
same,"Plant response rating, Morningglory",morningglory; [1],7
same,"Plant response rating, Morningglory",morningglory; [2],0
same,Morningglory plant response rating,morningglory; [3],0
same,Morningglory plant response rating,morningglory; [9],0
same,Redroot pigweed plant response rating,pigweed; [6],1
same,Redroot pigweed plant response rating,pigweed; [7],7
same,"Plant response rating, Redroot pigweed",pigweed; [1],9
same,"Plant response rating, Redroot pigweed",pigweed; [2],3
same,Redroot pigweed plant response rating,pigweed; [3],9
same,Redroot pigweed plant response rating,pigweed; [9],10
same,Rape plant response rating,rape; [6],0
same,Rape plant response rating,rape; [7],0
same,"Plant response rating, Rape",rape; [1],0
same,"Plant response rating, Rape",rape; [2],0
same,Rape plant response rating,rape; [3],0
same,Rape plant response rating,rape; [9],5
same,Soybean plant response rating,soybean; [6],4
same,Soybean plant response rating,soybean; [7],4
same,"Plant response rating, Soybean",soybean; [1],7
same,"Plant response rating, Soybean",soybean; [2],0
same,Soybean plant response rating,soybean; [3],0
same,Soybean plant response rating,soybean; [9],0
same,Sugarbeets plant response rating,sugar beet; [6],0
same,Sugarbeets plant response rating,sugar beet; [7],0
same,"Plant response rating, Sugarbeets",sugar beet; [1],7
same,"Plant response rating, Sugarbeets",sugar beet; [2],0
same,Sugarbeets plant response rating,sugar beet; [3],0
same,Sugarbeets plant response rating,sugar beet; [9],5
same,Velvetleaf plant response rating,velvetleaf; [6],0
same,Velvetleaf plant response rating,velvetleaf; [7],0
same,"Plant response rating, Velvetleaf",velvetleaf; [1],1
same,"Plant response rating, Velvetleaf",velvetleaf; [2],0
same,Velvetleaf plant response rating,velvetleaf; [3],0
same,Velvetleaf plant response rating,velvetleaf; [9],0
same,Wheat plant response rating,wheat; [6],0
same,Wheat plant response rating,wheat; [7],0
same,"Plant response rating, Wheat",wheat; [1],2
same,"Plant response rating, Wheat",wheat; [2],0
same,Wheat plant response rating,wheat; [3],2
same,Wheat plant response rating,wheat; [9],6
same,Wild oats plant response rating,wild oat; [6],0
same,Wild oats plant response rating,wild oat; [7],0
same,"Plant response rating, Wild oats",wild oat; [1],1
same,"Plant response rating, Wild oats",wild oat; [2],2
same,Wild oats plant response rating,wild oat; [3],2
same,Wild oats plant response rating,wild oat; [9],10
same,Nutsedge plant response rating,purple nutsedge; [6],0
same,"Plant response rating, Nutsedge",purple nutsedge; [2],0
